Laboratory results from ChEMBL document CHEMBL1201862, “PubChem BioAssay data set” (2004).
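Protocol summary: plate cells (96-well), add compound at 5 concentrations, incubate 48 h, interpolate endpoints linearly. Abbreviation: GI50, concentration required for 50% inhibition of growth.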 The source made the active and inactive calls. Cut-off read from the data, not from the text of the source: active = GI50 up to about 1.1 µM and inactive = higher.

Legend:
Experiment in all cases: NCI tumour cell line growth inhibition, 48 h
[1] = test system: 786-0
[2] = test system: A498
[3] = test system: A549
[4] = test system: ACHN
[5] = test system: BT-549
[6] = test system: CAKI-1
[7] = test system: CCRF-CEM
[8] = test system: COLO 205
[9] = test system: DU-145
[10] = test system: EKVX
[11] = test system: HCC 2998
[12] = test system: HCT-116
[13] = test system: HCT-15
[14] = test system: HL-60
[15] = test system: HOP-62
[16] = test system: HOP-92
[17] = test system: HT-29
[18] = test system: Hs-578T
[19] = test system: IGROV-1
[20] = test system: K562
[21] = test system: KM12
[22] = test system: LOX IMVI
[23] = test system: M14
[24] = test system: MCF7
[25] = test system: MDA-MB-231
[26] = test system: MDA-MB-435
[27] = test system: MDA-N
[28] = test system: MOLT-4
[29] = test system: Malme-3M
[30] = test system: NCI-H226
[31] = test system: NCI-H23
[32] = test system: NCI-H460
[33] = test system: NCI-H522
[34] = test system: NCI/ADR-RES
[35] = test system: OVCAR-3
[36] = test system: OVCAR-4
[37] = test system: OVCAR-5
[38] = test system: OVCAR-8
[39] = test system: PC-3
[40] = test system: RPMI-8226
[41] = test system: RXF 393
[42] = test system: SF-268
[43] = test system: SF-295
[44] = test system: SF-539
[45] = test system: SK-MEL-28
[46] = test system: SK-MEL-2
[47] = test system: SK-MEL-5
[48] = test system: SK-OV-3
[49] = test system: SN12C
[50] = test system: SNB-19
[51] = test system: SNB-75
[52] = test system: SR
[53] = test system: SW-620
[54] = test system: T47D
[55] = test system: TK-10
[56] = test system: U-251
[57] = test system: UACC-257
[58] = test system: UACC-62
[59] = test system: UO-31

With `Nc1nc(N)c(-c2cccc(C(F)(F)F)c2)c(Cc2cccc(C(F)(F)F)c2)n1` the GI50 [1] was 0.841 µM (active), the GI50 [2] was 3.43 µM (inactive) and the GI50 [3] was 0.628 µM (active). The GI50 [4] was 2.65 µM (inactive), the GI50 [5] was 10.2 µM (inactive) and the GI50 [6] was 7.23 µM (inactive). For the same molecule, the GI50 [7] was 6.92 µM (inactive), the GI50 [8] was 6.27 µM (inactive) and the GI50 [9] was 7.71 µM (inactive). For the same molecule, the GI50 [10] was 5.92 µM (inactive), the GI50 [11] was 3.1 µM (inactive) and the GI50 [12] was 640 nM (active). The GI50 [13] was 1.44 µM, the GI50 [14] was 2.2 µM (inactive) and the GI50 [15] was 6.05 µM (inactive). For the same molecule, the GI50 [16] was 12.2 µM (inactive), the GI50 [17] was 1.18 µM (inactive) and the GI50 [18] was 14.2 µM (inactive). The GI50 [19] was 1.91 µM (inactive), the GI50 [20] was 449 nM (active) and the GI50 [21] was 5.15 µM (inactive). For the same molecule, the GI50 [22] was 1.35 µM (inactive), the GI50 [23] was 1.22 µM (inactive) and the GI50 [24] was 3.84 µM (inactive). For the same molecule, the GI50 [25] was 13.1 µM (inactive), the GI50 [26] was 2.96 µM (inactive) and the GI50 [27] was 0.689 µM (active). The GI50 [28] was 2.9 µM (inactive), the GI50 [29] was 12.4 µM (inactive) and the GI50 [30] was 10.4 µM (inactive). The GI50 [31] was 2.01 µM (inactive), the GI50 [32] was 0.604 µM (active) and the GI50 [33] was 4.06 µM (inactive). For the same molecule, the GI50 [34] was 7.57 µM (inactive), the GI50 [35] was 6.03 µM (inactive) and the GI50 [36] was 12.2 µM (inactive). For the same molecule, the GI50 [37] was 3.48 µM (inactive), the GI50 [38] was 8.49 µM (inactive) and the GI50 [39] was 11.7 µM (inactive). For the same molecule, the GI50 [40] was 6.73 µM (inactive), the GI50 [41] was 3.34 µM (inactive) and the GI50 [42] was 5.55 µM (inactive). For the same molecule, the GI50 [43] was 1.52 µM (inactive), the GI50 [44] was 4.41 µM (inactive) and the GI50 [45] was 11.4 µM (inactive). The GI50 [46] was 7.71 µM (inactive), the GI50 [47] was 2.98 µM (inactive) and the GI50 [48] was 8.97 µM (inactive). For the same molecule, the GI50 [49] was 3.54 µM (inactive), the GI50 [50] was 5.7 µM (inactive) and the GI50 [51] was 13.6 µM (inactive). The GI50 [52] was 1.25 µM (inactive), the GI50 [53] was 7.33 µM (inactive) and the GI50 [54] was 12.8 µM (inactive). For the same molecule, the GI50 [55] was 7.67 µM (inactive), the GI50 [56] was 15.7 µM (inactive) and the GI50 [57] was 3.43 µM (inactive). For the same molecule, the GI50 [58] was 0.693 µM (active) and the GI50 [59] was 6.32 µM (inactive).
For `O=C(c1c(F)c(F)c(F)c(F)c1F)n1c(O)nc2ccccc21`, the GI50 [1] was 10.8 µM (inactive), the GI50 [2] was 19.1 µM (inactive) and the GI50 [3] was 16.7 µM (inactive). The GI50 [4] was 16.1 µM (inactive), the GI50 [5] was 18.5 µM (inactive) and the GI50 [6] was 5.82 µM (inactive). For the same molecule, the GI50 [7] was 4.53 µM (inactive), the GI50 [8] was 12.9 µM (inactive) and the GI50 [9] was 15.7 µM (inactive). For the same molecule, the GI50 [10] was 13.9 µM (inactive), the GI50 [11] was 3.56 µM (inactive) and the GI50 [12] was 3490 nM (inactive). The GI50 [13] was 5.06 µM, the GI50 [14] was 2.42 µM (inactive) and the GI50 [15] was 17.2 µM (inactive). For the same molecule, the GI50 [16] was 2.88 µM (inactive), the GI50 [17] was 6.28 µM (inactive) and the GI50 [18] was 17.2 µM (inactive). The GI50 [19] was 11.4 µM (inactive), the GI50 [20] was 3510 nM (inactive) and the GI50 [21] was 1.54 µM (inactive). For the same molecule, the GI50 [22] was 3.83 µM (inactive), the GI50 [23] was 9.33 µM (inactive) and the GI50 [24] was 4.04 µM (inactive). For the same molecule, the GI50 [25] was 12.2 µM (inactive), the GI50 [26] was 10.1 µM (inactive) and the GI50 [27] was 7.33 µM (inactive). For the same molecule, the GI50 [28] was 4.47 µM (inactive), the GI50 [29] was 14.8 µM (inactive) and the GI50 [30] was 17.3 µM (inactive). The GI50 [31] was 4.88 µM (inactive), the GI50 [32] was 12.8 µM (inactive) and the GI50 [33] was 5.9 µM (inactive). The GI50 [34] was 22 µM (inactive), the GI50 [35] was 9.77 µM (inactive) and the GI50 [36] was 13.3 µM (inactive). The GI50 [37] was 15.7 µM (inactive), the GI50 [38] was 13.2 µM (inactive) and the GI50 [39] was 7.93 µM (inactive). For the same molecule, the GI50 [40] was 3.03 µM (inactive), the GI50 [41] was 8.59 µM (inactive) and the GI50 [42] was 14.7 µM (inactive). The GI50 [43] was 16.4 µM (inactive), the GI50 [44] was 13.6 µM (inactive) and the GI50 [45] was 15 µM (inactive). The GI50 [46] was 4.2 µM (inactive), the GI50 [47] was 15.2 µM (inactive) and the GI50 [48] was 15.4 µM (inactive). For the same molecule, the GI50 [49] was 14.1 µM (inactive), the GI50 [50] was 14.9 µM (inactive) and the GI50 [51] was 16.5 µM (inactive). For the same molecule, the GI50 [52] was 2.62 µM (inactive), the GI50 [53] was 4.91 µM (inactive) and the GI50 [54] was 3.94 µM (inactive). For the same molecule, the GI50 [55] was 5.19 µM (inactive), the GI50 [56] was 12.5 µM (inactive) and the GI50 [57] was 5.69 µM (inactive). For the same molecule, the GI50 [58] was 12.1 µM (inactive) and the GI50 [59] was 12.3 µM (inactive).
